Counter-ions that a name gives are not always drawn.
Assays:
Wistar rats [1] = assay: Measurement of alcohol intake by limited access paradigm; type: in vivo; conditions: data not shown
Method: Measurement method: An impulsive behavior of cravings for drinking alcohol was evaluated as follows by reference to the method of Sinclair et al. (Alcohol 1992; 9:441-44 and Alcohol & Alcoholism 2001; 36:2-10). First, Wistar rats (male) were allowed to freely drink 10% aqueous ethanol solution and tap water for several weeks under isolated rearing. After the ethanol intake of each animal became stable, limited access paradigm allowing ethanol intake only for 1 hr per day was started, and the ethanol intake in 1 hr was measured every day. The ethanol intake was calculated from the results of weight measurement of a water supply bottle filled with 10% aqueous ethanol solution immediately before the start of the limited access paradigm and immediately after the completion of the limited access paradigm. […] The limited access paradigm test was performed during 9:00 AM-4:00 PM. […]
The significance level of the test was set to 5%. […] The difference between an average ethanol intake in the limited access paradigm for 4 days immediately before drug evaluation and an average ethanol intake in the limited access paradigm for 4 days during the drug administration period was calculated for every animal, and analyzed by two-way factorial analysis of variance by using the presence or absence of brexpiprazole and the presence or absence of nalmefene as factors.

rat = assay: Spontaneous locomotor activity under novel environments; type: in vivo; conditions: data not shown
Wistar rats [2] = conditions: report Alcohol & Alcoholism 2001; 36: 2-10; present dose 0.04 mg/kg; cited from earlier work
[3] = brexpiprazole alone 0.01 mg/kg orally
[4] = nalmefene hydrochloride monohydrate alone 0.04 mg/kg subcutaneously

O=c1ccc2ccc(OCCCCN3CCN(c4cccc5sccc45)CC3)cc2[nH]1 [brexpiprazole, 7-[4-(4-benzo[b]thiophen-4-yl-piperazin-1-yl)butoxy]-1H-quinolin-2-one]
influence on ethanol intake, drug by itself (Wistar rats [1]; [3]): does not, by itself, influence | influence on spontaneous locomotor activity under novel environments, drug by itself (rat; [3]): does not, by itself, influence

C=C1CC[C@@]2(O)[C@H]3Cc4ccc(O)c5c4[C@@]2(CCN3CC2CC2)[C@H]1O5 [nalmefene hydrochloride monohydrate]
influence on ethanol intake, drug by itself (Wistar rats [1]; [4]): does not, by itself, influence | influence on spontaneous locomotor activity under novel environments, drug by itself (rat; [4]): does not, by itself, influence

C=C1CC[C@@]2(O)[C@H]3Cc4ccc(O)c5c4[C@@]2(CCN3CC2CC2)[C@H]1O5 [nalmefene, 17-(cyclopropylmethyl)-4,5α-epoxy-6-methylenemorphinan-3,14-diol]
dose at which nalmefene used singly shows effects in this evaluation system, relative to the dose used in the present test (Wistar rats [2]): about 10 times

— patent US11642341B2, “Combination of brexpiprazole and nalmefene and use thereof for treating substance-related disorders” (OTSUKA PHARMACEUTICAL CO., LTD., priority 2014, dated 2023)
